We go through 19 molecules from patent US20260265238A1, “COMPOUNDS AND PHARMACEUTICAL COMPOSITIONS THAT DEGRADE SWI/SNF-RELATED MATRIX-ASSOCIATED ACTIN-DEPENDENT REGULATOR OF CHROMATIN SUBFAMILY A” (Plexium, Inc., priority 2023, published 2026).

Molecules are shown by their SMILES.

The target in assay [1] is T1, SMARCA4-HiBiT HeLa cells (protein which is expressed from the SMARCA4 gene) (Homo sapiens, UniProt P51532).
T1 construct: protein which is expressed from the SMARCA2 and SMARCA4 genes; host or cells: HeLa (SMARCA4-HiBiT engineered line)
The experiment in a line: SMARCA4 degradation assay (HiBiT-fusion HeLa cell line, 24 h, luminescence). Type of assay: cell-based. In outline: (§1)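 In this 24-hour cellular degradation readout, HiBiT-tagged HeLa lines received compound at up to typically 10 μM down to 300 pM in 10 points. After lysis with LgBiT and substrate, luminescence signals were used to build dose-response curves for DC50.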
(With HiBiT, luminescence reflects the tagged protein that the partner subunit can reach.)

Assay [2] has as its target T2, SMARCA2-HiBiT HeLa cells (protein which is expressed from the SMARCA2 gene) (Homo sapiens, UniProt P51531).
T2 construct: protein which is expressed from the SMARCA2 and SMARCA4 genes; host or cells: HeLa (SMARCA2-HiBiT engineered line)
The experiment in a line: SMARCA2 degradation assay (HiBiT-fusion HeLa cell line, 24 h, luminescence). Type of assay: cell-based. The gist of the method: as §1

T1 sequence (P51532 whole entry): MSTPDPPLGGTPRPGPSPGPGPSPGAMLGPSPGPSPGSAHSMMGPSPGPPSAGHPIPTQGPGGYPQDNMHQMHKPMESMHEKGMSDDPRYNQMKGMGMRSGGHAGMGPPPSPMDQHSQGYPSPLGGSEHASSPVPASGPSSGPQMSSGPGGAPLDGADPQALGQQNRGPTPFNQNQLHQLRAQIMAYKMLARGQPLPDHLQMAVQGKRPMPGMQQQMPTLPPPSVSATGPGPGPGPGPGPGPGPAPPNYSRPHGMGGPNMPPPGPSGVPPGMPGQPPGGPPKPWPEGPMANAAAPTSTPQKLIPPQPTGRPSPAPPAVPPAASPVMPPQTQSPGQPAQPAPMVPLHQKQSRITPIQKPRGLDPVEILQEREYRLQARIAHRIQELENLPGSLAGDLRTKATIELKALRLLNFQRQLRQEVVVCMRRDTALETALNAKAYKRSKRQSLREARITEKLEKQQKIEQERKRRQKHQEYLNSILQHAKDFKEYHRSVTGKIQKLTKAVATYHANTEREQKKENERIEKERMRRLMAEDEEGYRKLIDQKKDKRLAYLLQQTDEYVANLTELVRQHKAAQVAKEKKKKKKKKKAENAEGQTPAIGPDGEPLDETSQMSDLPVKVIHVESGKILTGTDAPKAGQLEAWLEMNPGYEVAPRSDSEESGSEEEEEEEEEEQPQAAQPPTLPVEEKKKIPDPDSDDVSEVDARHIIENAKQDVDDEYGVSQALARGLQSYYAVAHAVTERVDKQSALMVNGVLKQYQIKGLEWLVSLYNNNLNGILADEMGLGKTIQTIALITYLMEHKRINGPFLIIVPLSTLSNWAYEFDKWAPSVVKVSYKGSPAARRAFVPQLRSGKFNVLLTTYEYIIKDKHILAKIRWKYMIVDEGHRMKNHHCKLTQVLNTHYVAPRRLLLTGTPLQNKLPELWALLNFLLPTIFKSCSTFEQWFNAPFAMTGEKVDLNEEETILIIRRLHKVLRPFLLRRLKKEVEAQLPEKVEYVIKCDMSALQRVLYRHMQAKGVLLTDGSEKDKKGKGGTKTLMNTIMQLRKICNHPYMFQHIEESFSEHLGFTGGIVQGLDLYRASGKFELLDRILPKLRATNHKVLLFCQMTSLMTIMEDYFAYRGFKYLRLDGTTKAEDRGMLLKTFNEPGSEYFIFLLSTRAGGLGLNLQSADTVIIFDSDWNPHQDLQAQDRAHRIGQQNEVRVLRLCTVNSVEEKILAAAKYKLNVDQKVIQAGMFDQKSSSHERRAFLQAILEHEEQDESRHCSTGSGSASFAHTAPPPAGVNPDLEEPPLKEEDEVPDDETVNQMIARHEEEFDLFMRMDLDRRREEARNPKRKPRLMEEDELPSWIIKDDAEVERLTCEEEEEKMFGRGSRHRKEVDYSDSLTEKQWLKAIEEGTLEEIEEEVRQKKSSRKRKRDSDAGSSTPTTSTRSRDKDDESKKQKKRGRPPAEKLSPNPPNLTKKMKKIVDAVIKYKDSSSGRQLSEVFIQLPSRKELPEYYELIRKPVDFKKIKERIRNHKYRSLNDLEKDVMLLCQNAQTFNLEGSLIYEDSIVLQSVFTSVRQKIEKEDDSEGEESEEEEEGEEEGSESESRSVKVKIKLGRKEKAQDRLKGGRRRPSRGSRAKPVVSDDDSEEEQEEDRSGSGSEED
T2 sequence (P51531 whole entry): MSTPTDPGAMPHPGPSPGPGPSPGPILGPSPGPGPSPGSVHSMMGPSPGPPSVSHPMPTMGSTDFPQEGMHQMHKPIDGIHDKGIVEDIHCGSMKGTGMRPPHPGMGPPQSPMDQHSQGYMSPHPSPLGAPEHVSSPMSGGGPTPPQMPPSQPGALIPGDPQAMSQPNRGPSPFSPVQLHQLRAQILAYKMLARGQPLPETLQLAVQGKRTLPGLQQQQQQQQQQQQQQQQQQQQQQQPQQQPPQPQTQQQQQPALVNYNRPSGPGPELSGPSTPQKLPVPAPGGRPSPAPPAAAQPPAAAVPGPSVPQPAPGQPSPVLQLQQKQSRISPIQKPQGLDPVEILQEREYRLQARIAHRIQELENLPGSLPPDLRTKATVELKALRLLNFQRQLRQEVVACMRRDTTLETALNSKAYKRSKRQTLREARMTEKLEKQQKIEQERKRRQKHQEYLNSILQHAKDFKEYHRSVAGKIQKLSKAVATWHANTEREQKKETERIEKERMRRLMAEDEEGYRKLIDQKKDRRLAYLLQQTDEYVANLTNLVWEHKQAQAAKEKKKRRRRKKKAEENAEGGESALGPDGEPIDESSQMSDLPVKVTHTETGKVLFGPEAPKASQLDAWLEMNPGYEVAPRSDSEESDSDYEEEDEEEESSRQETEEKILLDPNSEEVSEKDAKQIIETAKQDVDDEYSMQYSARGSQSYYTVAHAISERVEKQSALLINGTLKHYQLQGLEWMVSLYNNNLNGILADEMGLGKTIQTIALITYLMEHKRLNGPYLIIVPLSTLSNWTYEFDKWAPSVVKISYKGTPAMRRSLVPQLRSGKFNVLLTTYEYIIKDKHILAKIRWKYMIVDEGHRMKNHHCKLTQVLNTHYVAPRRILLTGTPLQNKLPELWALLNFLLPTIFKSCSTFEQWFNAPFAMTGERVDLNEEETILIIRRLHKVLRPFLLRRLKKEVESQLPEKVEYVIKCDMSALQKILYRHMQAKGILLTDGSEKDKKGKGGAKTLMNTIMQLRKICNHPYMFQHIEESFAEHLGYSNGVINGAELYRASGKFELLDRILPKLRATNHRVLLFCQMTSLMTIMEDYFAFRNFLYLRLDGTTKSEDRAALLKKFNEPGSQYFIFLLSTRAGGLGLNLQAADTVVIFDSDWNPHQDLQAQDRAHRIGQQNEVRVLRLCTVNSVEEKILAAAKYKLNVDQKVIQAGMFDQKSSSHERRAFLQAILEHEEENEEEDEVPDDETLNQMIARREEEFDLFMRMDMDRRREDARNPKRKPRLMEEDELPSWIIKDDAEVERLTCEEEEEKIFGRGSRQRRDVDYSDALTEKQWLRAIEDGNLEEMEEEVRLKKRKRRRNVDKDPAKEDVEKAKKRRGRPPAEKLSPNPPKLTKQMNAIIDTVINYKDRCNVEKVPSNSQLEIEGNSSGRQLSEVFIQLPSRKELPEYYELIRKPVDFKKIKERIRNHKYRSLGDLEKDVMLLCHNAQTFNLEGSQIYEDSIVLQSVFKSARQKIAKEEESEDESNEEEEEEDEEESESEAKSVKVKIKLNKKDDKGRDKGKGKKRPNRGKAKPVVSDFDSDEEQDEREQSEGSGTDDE

On to `CN(C)CC#Cc1nccc(N2CCCC(c3cc(-c4ccccc4O)nnc3N)CC2)n1` (stereo not shown) [Compound P-172, o-[6-amino-5-(1-{2-[3-(dimethylamino)-1-propynyl]-4-pyrimidinyl}-4-azepanyl)-3-pyridazinyl]phenol], for which the half-maximal degradation concentration (DC50) in assay [1] and in assay [2] was less than 50 nM each time. Further, in assay [1] (@ 1 μM), the inhibition (commonly the change of the read-out against control, counted positive when it falls) at 1 µM lay in the range of 30 to 70%. For the same molecule, the “SMARCA2 % Degradation @ 1 μM” value in assay [2] (@ 1 μM) is on record as “++ (++=30-70%)”.

In the case of `C[C@@H]1CCN(c2cc(-c3ccccc3O)nnc2N)CCN1c1ccnc(C#CCN2CC3(COC3)C2)n1` [Compound P-213, o-{5-[(R)-5-methyl-4-(2-{3-(2-oxa-6-aza-6-spiro[3.3]heptyl)-1-propynyl}-4-pyrimidinyl)-1,4-diazepan-1-yl]-6-amino-3-pyridazinyl}phenol], the half-maximal degradation concentration (DC50) (usually the concentration giving 50% degradation) was more than 5000 nM in assay [1] and 50 to 500 nM in assay [2]. In assay [1] (@ 1 μM), this molecule registered an inhibition at 1 µM of less than 30%. For the same molecule, in assay [2] (@ 1 μM), the “SMARCA2 % Degradation @ 1 μM” value was “++ (++=30-70%)”.

As for `CN(C)CC#Cc1nccc(N2C3CCC2CN(c2cc(-c4ccccc4O)nnc2N)CC3)n1` (stereo not shown) [Compound P-157, o-[6-amino-5-(9-{2-[3-(dimethylamino)-1-propynyl]-4-pyrimidinyl}-3,9-diazabicyclo[4.2.1]non-3-yl)-3-pyridazinyl]phenol], the 50% degradation concentration (DC50) in assay [1] was 50 to 500 nM; in assay [2] it was less than 50 nM. In assay [1] (@ 1 μM), this molecule came in with an inhibition at 1 µM of 30 to 70%. The “SMARCA2 % Degradation @ 1 μM” value in assay [2] (@ 1 μM) was “++ (++=30-70%)”.

As to `C[C@H]1COC[C@H](C)N1CC#Cc1nccc(N2CCCN(c3cc(-c4ccccc4O)nnc3N)CC2)n1` [Compound P-305, 0-{5-[4-(2-{3-[(3S,5S)-3,5-dimethyl-4-morpholinyl]-1-propynyl}-4-pyrimidinyl)-1,4-diazepan-1-yl]-6-amino-3-pyridazinyl}phenol], the 50% degradation concentration (DC50) in assay [1] and in assay [2] was 50 to 500 nM in each case. Also, the inhibition at 1 µM in assay [1] (@ 1 μM) lay within 30 to 70%. Also, in assay [2] (@ 1 μM), the “SMARCA2 % Degradation @ 1 μM” value is listed as “++ (++=30-70%)”.

As to `C[C@@H]1CCN(c2cc(-c3ccccc3O)nnc2N)CCN1c1nc(C#CCNC(=O)OC(C)(C)C)ncc1F` [Compound P-248], the DC50 in assay [1] and in assay [2] was 500 to 5000 nM throughout. The same molecule had an inhibition at 1 µM in assay [1] (@ 1 μM) of less than 30%. Moreover, the “SMARCA2 % Degradation @ 1 μM” value in assay [2] (@ 1 μM) is “++ (++=30-70%)”.

`Nc1nnc(-c2ccccc2O)cc1N1CCC2CCN(c3ccnc(C#CCNC(=O)c4cc5ncccn5n4)n3)C2C1` (stereo not shown) [Compound P-37, N-(3-(4-(6-(3-amino-6-(2-hydroxyphenyl)pyridazin-4-yl)octahydro-1H-pyrrolo[2,3-c]pyridin-1-yl)pyrimidin-2-y1)prop-2-yn-1-yl)pyrazolo[1,5-a]pyrimidine-2-carboxamide]: the DC50 in assay [1] and in assay [2] was 50 to 500 nM in each case. Besides, the inhibition at 1 µM in assay [1] (@ 1 μM) fell in the range of 30 to 70%. Further, the “SMARCA2 % Degradation @ 1 μM” value in assay [2] (@ 1 μM) was “++ (++=30-70%)”.

With `C[C@H]1CCN(c2cc(-c3ccccc3O)nnc2N)CCN1c1ccnc(C#CCNC(=O)c2cc3ncccn3n2)n1` [Compound P-102, (S)-N-(3-(4-(4-(3-amino-6-(2-hydroxyphenyl)pyridazin-4-yl)-7-methyl-1,4-diazepan-1-yl)pyrimidin-2-yl)prop-2-yn-1-yl)pyrazolo[1,5-a]pyrimidine-2-carboxamide], the half-maximal degradation concentration (DC50) is less than 50 nM in assay [1] and 50 to 500 nM in assay [2]. In assay [1] (@ 1 μM), this molecule had an inhibition at 1 µM of more than 70%. In assay [2] (@ 1 μM), the “SMARCA2 % Degradation @ 1 μM” value is “+++ (+++=>70%)”.

`Nc1nnc(-c2ccccc2O)cc1N1C2CC1CN(c1ccnc(C#CCNC(=O)c3cc4ncccn4n3)n1)C2` [Compound P-80, N-(3-(4-(6-(3-amino-6-(2-hydroxyphenyl)pyridazin-4-yl)-3,6-diazabicyclo[3.1.1]heptan-3-yl)pyrimidin-2-yl)prop-2-yn-1-yl)pyrazolo[1,5-a]pyrimidine-2-carboxamide]: the DC50 was more than 5000 nM in assay [1] and 500 to 5000 nM in assay [2]. This molecule returned an inhibition at 1 µM in assay [1] (@ 1 μM) of less than 30%. Besides, the “SMARCA2 % Degradation @ 1 μM” value in assay [2] (@ 1 μM) was “+ (+=<30%)”.

For `CN(C)CC#Cc1nccc(N2C3CCC2CN(c2cc(-c4ccccc4O)nnc2N)C3)n1` [Compound P-134, 2-(6-amino-5-(8-(2-(3-(dimethylamino)prop-1-yn-1-yl)pyrimidin-4-yl)-3,8-diazabicyclo[3.2.1]octan-3-yl)pyridazin-3-yl)phenol], the results for the DC50 in assay [1] and in assay [2] were less than 50 nM and 50 to 500 nM, respectively. The inhibition at 1 µM in assay [1] (@ 1 μM) was in the range of 30 to 70%. Besides, the “SMARCA2 % Degradation @ 1 μM” value in assay [2] (@ 1 μM) was “++ (++=30-70%)”.

In the case of `C[C@@H]1CCN(c2cc(-c3ccccc3O)nnc2N)CCN1c1ccnc(C#CCN2CCOCC2)n1` [Compound P-334, 0-(5-{(R)-5-methyl-4-[2-(3-morpholino-1-propynyl)-4-pyrimidinyl]-1,4-diazepan-1-yl}-6-amino-3-pyridazinyl)phenol], the DC50 in assay [1] and in assay [2] was 50 to 500 nM each time. Moreover, in assay [1] (@ 1 μM), the inhibition at 1 µM was less than 30%. For the same molecule, the “SMARCA2 % Degradation @ 1 μM” value in assay [2] (@ 1 μM) is reported as “++ (++=30-70%)”.

Consider `CC(C)OCC#Cc1cc(N2CCN(c3cc(-c4ccccc4O)nnc3N)CC[C@H]2C)ccn1` [Compound P-383, 0-(5-{(R)-4-[2-(3-isopropoxy-1-propynyl)-4-pyridyl]-5-methyl-1,4-diazepan-1-yl}-6-amino-3-pyridazinyl)phenol], for which the 50% degradation concentration (DC50) in assay [1] and in assay [2] was less than 50 nM throughout. For the same molecule, the inhibition at 1 µM in assay [1] (1 μM) was 30 to 70%. In assay [2] (1 μM), the “SMARCA2 % Degradation @ 1 μM” value was “+++ (+++=>70%)”.

With `Nc1nnc(-c2ccccc2O)cc1N1CCCN(c2ccnc(C#CCN3CCn4nccc4C3)n2)CC1` [Compound P-146, 2-(6-amino-5-(4-(2-(3-(6,7-dihydropyrazolo[1,5-a]pyrazin-5(4H)-yl)prop-1-yn-1-yl)pyrimidin-4-yl)-1,4-diazepan-1-yl)pyridazin-3-yl)phenol], the DC50 in assay [1] and in assay [2] was 50 to 500 nM in each case. The same molecule had an inhibition at 1 µM in assay [1] (@ 1 μM) of 30 to 70%. In assay [2] (@ 1 μM), the “SMARCA2 % Degradation @ 1 μM” value is listed as “+++ (+++=>70%)”.

Turning to `Nc1nnc(-c2ccccc2O)cc1N1CCC2(CCCN(c3ccnc(C#CCNC(=O)c4cc5n(n4)CCC5)n3)C2)CC1` [Compound P-129, N-(3-(4-(9-(3-amino-6-(2-hydroxyphenyl)pyridazin-4-yl)-2,9-diazaspiro[5.5]undecan-2-yl)pyrimidin-2-yl)prop-2-yn-1-yl)-5,6-dihydro-4H-pyrrolo[1,2-b]pyrazole-2-carboxamide], the DC50 in assay [1] and in assay [2] was 50 to 500 nM each time. In addition, in assay [1] (@ 1 μM), the inhibition at 1 µM lay within 30 to 70%. The “SMARCA2 % Degradation @ 1 μM” value in assay [2] (@ 1 μM) is given as “++ (++=30-70%)”.

Take `C[C@@H]1CCN(c2cc(-c3ccccc3O)nnc2N)CCN1c1ccnc(C#CCN(C)C)n1` [Compound P-345, 0-{5-[(R)-4-{2-[3-(dimethylamino)-1-propynyl]-4-pyrimidinyl}-5-methyl-1,4-diazepan-1-y1]-6-amino-3-pyridazinyl}phenol]: the DC50 in assay [1] and in assay [2] was less than 50 nM throughout. In assay [1] (@ 1 μM), this molecule displayed an inhibition at 1 µM of 30 to 70%. The “SMARCA2 % Degradation @ 1 μM” value in assay [2] (@ 1 μM) is “++ (++=30-70%)”.

As for `Cc1c(C(=O)NCC#Cc2nccc(N3CCN(c4cc(-c5ccccc5O)nnc4N)CC3)n2)oc2ccccc12` [Compound P-74, N-(3-(4-(4-(3-amino-6-(2-hydroxyphenyl)pyridazin-4-yl)piperazin-1-yl)pyrimidin-2-yl)prop-2-yn-1-yl)-3-methylbenzofuran-2-carboxamide], the half-maximal degradation concentration (DC50) in assay [1] and in assay [2] was 50 to 500 nM each time. For the same molecule, in assay [1] (@ 1 μM), the inhibition at 1 µM lay in the range of 30 to 70%. The “SMARCA2 % Degradation @ 1 μM” value in assay [2] (@ 1 μM) is given as “++ (++=30-70%)”.

As for `NCC#Cc1nccc(N2CCC3(CC2)CCN(c2cc(-c4ccccc4O)nnc2N)CC3)n1` [Compound P-90, 2-(6-amino-5-(9-(2-(3-aminoprop-1-yn-1-yl)pyrimidin-4-yl)-3,9-diazaspiro[5.5]undecan-3-yl)pyridazin-3-yl)phenol], the half-maximal degradation concentration (DC50) in assay [1] and in assay [2] was 500 to 5000 nM each time. The inhibition at 1 µM in assay [1] (@ 1 μM) is less than 30%. Besides, the “SMARCA2 % Degradation @ 1 μM” value in assay [2] (@ 1 μM) is recorded as “+ (+=<30%)”.

For `CC(C#Cc1nccc(N2C3CCC2CN(c2cc(-c4ccccc4O)nnc2N)C3)n1)NC(=O)c1cc2ncccn2n1` (stereo not shown) [Compound P-97, N-(4-(4-(3-(3-amino-6-(2-hydroxyphenyl)pyridazin-4-yl)-3,8-diazabicyclo[3.2.1]octan-8-yl)pyrimidin-2-yl)but-3-yn-2-yl)pyrazolo|1,5-a|pyrimidine-2-carboxamide], the 50% degradation concentration (DC50) in assay [1] and in assay [2] was 50 to 500 nM in each case. This molecule returned an inhibition at 1 µM in assay [1] (@ 1 μM) of 30 to 70%. Besides, in assay [2] (@ 1 μM), the “SMARCA2 % Degradation @ 1 μM” value is given as “++ (++=30-70%)”.

`Nc1nnc(-c2ccccc2O)cc1N1CCCN(c2ccnc(C#CCNC(=O)c3cc4ncccn4n3)n2)CC1` [Compound P-76, N-(3-(4-(4-(3-amino-6-(2-hydroxyphenyl)pyridazin-4-yl)-1,4-diazepan-1-yl)pyrimidin-2-yl)prop-2-yn-1-yl)pyrazolo[1,5-a]pyrimidine-2-carboxamide]: the 50% degradation concentration (DC50) in assay [1] and in assay [2] was 50 to 500 nM in each case. Moreover, in assay [1] (@ 1 μM), the inhibition at 1 µM was more than 70%. In assay [2] (@ 1 μM), the “SMARCA2 % Degradation @ 1 μM” value is recorded as “+++ (+++=>70%)”.

In the case of `C[C@@H]1CCN(c2cc(-c3ccccc3O)nnc2N)CCN1c1ccnc(C#CCNC(=O)c2cc3ncccn3n2)n1` [Compound P-14, (R)-N-(3-(4-(4-(3-amino-6-(2-hydroxyphenyl)pyridazin-4-yl)-7-methyl-1,4-diazepan-1-yl)pyrimidin-2-yl)prop-2-yn-1-yl)pyrazolo[1,5-a]pyrimidine-2-carboxamide], the DC50 in assay [1] and in assay [2] was 50 to 500 nM each time. The inhibition at 1 µM in assay [1] (@ 1 μM) is 30 to 70%. Further, the “SMARCA2 % Degradation @ 1 μM” value in assay [2] (@ 1 μM) is recorded as “+++ (+++=>70%)”.
